Experimental data as given in patent US12390467B2, “Necroptosis inducers or autophagy inhibitors or a combination thereof” (The University of Toledo, priority 2018, dated 2025).

Legend:
Format in all cases: cell-based
[1] = system: MDA-MB468 cells; experiment: Nuclear condensation and morphology, MDA-MB468
Protocol: To detect DNA fragmentation following apoptotic cell death, the Hoechst 33258 assay was performed. Briefly, TNBC cells were seeded in a 6-well plate at a density of 10,000 cells/well over 18-mm cover slips and incubated for 24 h. Following incubation, TPH104 (1, 2, or 5 μM), or vehicle were added for an additional 12 h. Subsequently, Hoechst 33258 (Sigma Aldrich, USA) was added to the cells at a concentration of 0.5 mg/mL and incubated for 30 minutes at 37° C. The cells were then washed 3× with phosphate buffered saline (PBS). Subsequently, the cover slips were mounted on a microscope glass/slide and allowed to dry for at least 2 h. Stained cells from each cover slip were captured from randomly selected fields under a fluorescent microscope (EVOS-FLC cell imaging system, Thermofisher scientific) to qualitatively determine the proportion of viable and apoptotic cells based on their relative fluorescence and nuclear fragmentation as previously described.

[2] = system: RIP, p-RIP, MLKL, caspase 8 in MDA-MB468 cells; experiment: Western blot, necroptotic proteins, MDA-MB468
Protocol: The TNBC cells were seeded in a culture flask and incubated for 24 h. The cells were then incubated with different concentrations of the lead compounds and re-incubated for an additional 12 or 24 h. […] The bicinchoninic acid (BCA) was used to determine protein concentration in the cell extracts (G-BIOSCIENCES, St. Louis, MO, USA). […] The membrane was blocked using 5% milk in Tris-buffered Tween 20 saline for 30 minutes. The membrane was then incubated overnight with primary antibodies against Bak, Bax, Bcl-2, caspase9, caspase 3, caspase 7, PARP, cytochrome c, N-cadherin, E-cadherin, c-Myc, dishevelled segment polarity protein 3 (DVL3), dishevelled segment polarity protein 2 (DVL2), Vimentin, mitogen-activated protein kinase kinase (MAPKK also known as MEK1/2), β-catenin, low-density lipoprotein receptor-related protein 6 (LRP6), receptor-interacting protein kinase (RIP), phosphorylated RIP (p-RIP), mixed lineage kinase domain like pseudokinase(MLKL), Caspase 8, light chain 3 (LC3), lysosomal-associated membrane protein 1 (LAMP1), unc-51 like autophagy activating kinase 1 (ULK1), ras associated protein 7 (Rab7), ras associated protein 5 (Rab5), Beclin 1, mechanistic target of rapamycin (mTOR), tumor necrosis factor alpha (TNF-α), tumor necrosis factor receptor 1 (TNFR1), tumor necrosis factor receptor 2 (TNFR2), Fas-associated protein with death domain (FADD), Fas ligand (Fas), TNF-related apoptosis-inducing ligand (TRAIL), death receptor 5 (DR5), Tumor necrosis factor receptor type 1-associated DEATH domain (TRADD), receptor-interacting protein kinase 3 (RIP3), β-actin or GAPDH in 1:1000 dilution in 5% milk or 5% BSA at 4° C. Horseradish peroxidase-labeled (HRP) anti-rabbit or anti-mouse secondary antibodies (1:5,000 dilution) were added and incubated the next day for an additional 1 h. A ChemiDoc™ MP System imaging system from Bio-Rad (Hercules, CA, USA) was used for blots reading. Blots were used to obtain the protein bands, followed by quantification of the bands using image J software (NIH, Bethesda, MD, USA). All of the data were expressed as the ratio of β-actin or GAPDH.

[3] = system: BT-20 or MDA-MB468 cells; experiment: Cellular reactive oxygen species (ROS) detection assay (H2DCFDA); conditions: 1, 2, and 5 μM, 12 h
Protocol: To assess the effect of TPH104 on the generation of ROS, a cell permeant, fluorogenic dye, 2′,7′-dichlorofluorescin diacetate, H2DCFDA, was used. A 5 mM stock solution was prepared using DMSO and PBS was used to prepare the 3 μM working solution of H2DCFDA. The TNBC cells were seeded in a 6-well plate as described in the cell cycle assay. After overnight incubation, cells were incubated with different TPH104 (1, 2, 5 μM) or vehicle for 12 h or with 2 μM of paclitaxel (positive control) for 2 h. The H2DCFDA dye (3 μM) was added to each well and the plate was incubated for an additional 30 minutes. Subsequently, cells were washed 3 times in PBS to remove excess H2DCFDA dye. Thereafter, cells from each well were captured from randomly selected fields using a fluorescent microscope (EVOS-FLC cell imaging system, Thermofisher scientific) at 40× to determine the 2′,7′-dichlorofluorescein (DCF) fluorescence intensity, which is positively correlated with the generation of ROS.

[4] = system: MDA-MB468, BT-20, and MDA-MB231; experiment: Trans-well migration assay; conditions: 1 μM or 10 μM, 24 h
Protocol: This assay was used to assess the migration and invasiveness of TNBC cells. In this assay, 24 well-plates with 24 well inserts of 8 μm pore size, (Corning, Cambridge, MA, USA), were used. The inserts were pre-coated with growth-factor reduced matrigel (1:40) and added to each well, forming two chambers (upper and lower). Briefly, cells were seeded at a density of 10,000 cells/well in the upper chamber of the inserts. The lower chamber was filled with cell-free DMEM medium supplemented with 10% FBS and 1% P/S. The next day, cells were incubated with 0.1, 1, or 10 μM of TPH104 or vehicle for 24 h to allow the cells to migrate through the porous membrane into the lower chamber. Following incubation, cotton swabs were used to wipe away the non-migrated, stationary cells in the upper chamber. The migrated cells were fixed with 100% methanol and stained with 0.1% crystal violet dye. The migrated cells were then viewed, pictured and counted using an EVOS-FLC microscope as previously reported.

[5] = system: BT-20 cells; experiment: Acridine orange assay; conditions: TPH104, 12 h, vs vehicle
Protocol: The cell-permeant, nucleic acid binding dye, acridine orange (AO) was used to assess the effect of TPH104 on the activation of lysosomes. A 10 μg/ml stock solution was prepared using PBS. The TNBC cells were seeded in a 6-well plate as described in the cell cycle assay. After overnight incubation, cells were incubated with TPH104 (1, 2, 5 μM), vehicle or 20 uM of chloroquine (CQ, […]) for 12 h. The media was removed via suction and 1 ml of AO, diluted in 1:1000 in PBS, was added to each well and the plate was incubated for an additional 30 minutes. Cells were washed three times in PBS to remove excess dye. The cells from each well were captured from randomly selected fields using a fluorescent microscope (EVOS-FLC cell imaging system, Thermofisher scientific) at 40× to determine the AO fluorescence intensity which is positively correlated to lysosomal activation.

[6] = system: S1M180 and H460-MX20 ABCG2-overexpressing cells vs parental S1 and H460; experiment: Collateral sensitivity in ABCG2-overexpressing versus parental cells; conditions: 0.3, 3, and 30 μM
Text: The data is shown as means±SEM of three independent experiments.

In the case of `COc1ccc(O)c(/C=N/Nc2ncnc3scc(-c4ccc(C)cc4)c23)c1` [TPH104], the “nuclear condensation or cellular shrinkage” value [1] is reported as “did not produce”, the “expression of caspase 8” value ([2]; 0.5, 1, 2, and 5 μM) is reported as “significantly decreased” and the “expression levels of MLKL” value ([2]; 1, 2, and 5 μM) is reported as “significantly increased”. The “expression of p-RIP” value ([2]; 1, 2, and 5 μM) was “significantly increased”, the “expression of RIP1” value ([2]; 1, 2, or 5 μM for 12 h) was “significantly increased” and the “DCF fluorescence levels (ROS)” value [3] was “did not significantly alter”. The “migration of TNBC cells” value [4] was “significantly decreased”, the “fluorescence intensity of the acridine orange (AO) dye” value [5] was “did not show a significant increase” and the “ABCG2 transporter mediated multidrug resistance, collateral sensitivity” value [6] was “collateral sensitivity”.
